Reference: article PMC8621605, “Cascade Transformations of 1-R-Ethynyl-9,10-anthraquinones with Amidines: Expanding Access to Isoaporphinoid Alkaloids” (Molecules, 2021)
Several values for one entry are separate records, joined by “and”; a condition that tells them apart may be missing. Equal entries are not always repeated. Where two headings read alike, the source gives them in different places.

Legend:
[1] = tested on: Concanavalin A-Induced Inflammation; assay: Concanavalin A-induced mouse paw edema model; type: in vivo, C57BL/6 female mice; details: for anti-inflammatory effect (in words): 20 mg/kg i.p.; for inhibition in vivo at 20 mg/kg: Mus musculus, ip, anti-inflammatory activity relative to control group, read-out: Concanavalin A-Induced Inflammation AIA, %; for inhibition in vivo at 20 mg/kg / Concanavalin A-Induced Inflammation IEI, %: 20 mg/kg i.p. twice; for Concanavalin A-Induced Inflammation IEI, %: inflammatory edema index, 24 h and 1 h before phlogogen, mean ± SEM; for activity higher than that of indomethacin (reference drug): 20 mg/kg double i.p. administration
From the text: (§1) The anti-inflammatory activity of the synthesized compounds was investigated in vivo in comparison with indomethacin on two models of local inflammation induced by histamine or concanavalin A injection. The last one was used as the inductor of allergic-like inflammation, owing to its immunogenic activity. The results were expressed as values of inflammatory edema indexes (IEI) and percentages of anti-inflammatory activity (AIA) relative to the control group (Table 1).
(§2) The pharmacological studies were carried out on outbred albino male mice and C57BL/6 female mice weighing 20–25 g with eight animals in each group. The anti-inflammatory activity of compounds 2–3 was evaluated in the histamine-induced and concanavalin A-induced mouse paw edema models. The test compounds were dissolved in saline containing 0.5% Tween 80 just before intraperitoneal administration at the dose of 20 mg/kg. The reference agent indomethacin (‘Fluka BioChemica’) was administered by the same method and dose. The control group of animals received an equivalent volume of water–Tween mixture.
The 8 female mice C57Bl/6 were subplantar injected into the hind paw with 0.02 mL 0.5% concanavaline A (“Sigma Aldrich”) aqueous solution. The test compounds were administered twice 24 h and 1 h before phlogogen. The animals were sacrificed by cervical dislocation 1 h after the phlogogen injection.
(§3) Both hind paws were cut off at the ankle joint and weighed. The ratio of the difference in weight between the treated and untreated hind paws to the weight of the untreated hind paw was used as an inflammatory edema index (IEI). The relative percentage of IEI versus control IEI (100%) was calculated for each test group. The anti-inflammatory activity (AIA) was presented as a difference between 100% in the control group and relative percentage of IEI in the test group.

HeLa = assay: MTT cytotoxicity assay, cervical cancer; type: cell-based; details: for IC50: 72 h, MTT, read-out: IC50 ± SEM, HeLa; for cytotoxicity lower than doxorubicin: ratio of IC50
Description: (§4) Cell lines were obtained from the American Type Culture Collection: U-87 MG (ATCC number HBT-14), MCF7 (ATCC number HTB-22), A549 (ATCC number CRM-CCL), HeLa (ATCC number CCL-2). Immortalized human fibroblasts hTERT (as noncancerous control) were obtained from ICG SB RAS (Novosibirsk, Russia). DMEM with 10% fetal bovine serum (Gibco, Amarillo, TX, USA) was used for culturing. Optical density was measured on a Multiskan RC spectrophotometer (LabSystems, Vantaa, Finland). The MTT test was carried out according to the standard procedure using the reagent 3-(4,5-dimethylthiazol-2-yl)-2,5-diphen-yltetrazolium bromide (MTT, Sigma). Cells were seeded in 96 well plates at 5000 cells/well and incubated for 24 h at 37 C in 5% CO2. After 24 h, various concentrations of test compounds ([…]) in DMSO were added and the cells were incubated for an additional 72 h. The viability for DMSO (negative control) was calculated as 100%. All culture experiments were carried out independently three times with two repeats in the experiment, and the final result is presented as concentration, which causes 50% inhibition of cell population growth (IC50 ± SEM).

MCF7 = assay: MTT cytotoxicity assay, breast cancer; type: cell-based, human; details: for IC50: Homo sapiens, MCF7, 72 h, read-out: IC50 ± SEM, MCF7
Description: (§5) The cytotoxicity study of the quinolinones 2–3 was evaluated in vitro by MTT assay on immortalized humane fibroblasts (hTERT), humane breast cancer cell line (MCF7) and humane glioblastoma cell line (U-87MG and) versus doxorubicin as a reference compound.
as §4

U-87 MG = assay: MTT cytotoxicity assay, glioblastoma; type: cell-based, human; details: for IC50: Homo sapiens, U-87 MG, 72 h, read-out: IC50 ± SEM, U-87 MG
Description: as §5, §4

A549 = assay: MTT cytotoxicity assay, A549; type: cell-based; details: Homo sapiens, 72 h, read-out: IC50 ± SEM, A549
Description: as §4

[2] = tested on: Histamine-Induced Inflammation; assay: Histamine-induced mouse paw edema model; type: in vivo, outbred albino male mice; details: for anti-inflammatory effect (in words) / inhibition in vivo at 20 mg/kg: 20 mg/kg i.p.; for inhibition in vivo at 20 mg/kg: Mus musculus, ip, anti-inflammatory activity relative to control group, read-out: Histamine-Induced Inflammation AIA, %; for Histamine-Induced Inflammation IEI, %: inflammatory edema index, 20 mg/kg i.p. 1 h before histamine, mean ± SEM
From the text: as §1, §2
The 8 outbred male albino mice were subplantar injected into the hind paw with 0.05 mL 0.01% histamine (“Sigma Aldrich”, Saint Louis, MO, USA) in water solution. The tested compounds were administered 1 h before the histamine injection. The animals were sacrificed by cervical dislocation 5 h after the phlogogen injection.
as §3

hTERT = assay: MTT cytotoxicity assay, immortalized fibroblasts; type: cell-based, human; details: for IC50: Homo sapiens, Fibroblast, 72 h, read-out: IC50 ± SEM, hTERT
Description: as §5, §4

CC(=O)c1ccc(C(=O)c2c(-c3ccccc3)nc3c4c(cccc24)C(=O)c2ccccc2-3)cc1 [2b, 2-benzo-3-(p-acetylbenzoyl)-7H-dibenzo[de,h]quinolin-7-one]
anti-inflammatory effect (in words) [1]: most potent effects
inhibition in vivo at 20 mg/kg [1]: 43%
Concanavalin A-Induced Inflammation IEI, % [1]: 21.4 ± 1.6 %
IC50 (HeLa; Homo sapiens, HeLa): > 100 µM
IC50 (MCF7): > 100 µM
melting point: 312 to 313 °C
IC50 (U-87 MG): > 100 µM
IC50 (A549): > 100 µM
anti-inflammatory effect (in words) [2]: most potent effects
inhibition in vivo at 20 mg/kg [2]: 33%
Histamine-Induced Inflammation IEI, % [2]: 23.0 ± 1.9 %
IC50 (hTERT): > 100 µM

COc1ccc(C(=O)c2c(-c3ccccc3)nc3c4c(cccc24)C(=O)c2ccccc2-3)cc1 [2d, 2-benzo-3-(p-methoxybenzoyl)-7H-dibenzo[de,h]quinolin-7-one]
anti-inflammatory effect (in words) [1]: most potent effects
inhibition in vivo at 20 mg/kg [1]: 26%
Concanavalin A-Induced Inflammation IEI, % [1]: 27.9 ± 1.2 %
IC50 (HeLa; Homo sapiens, HeLa): > 100 µM
IC50 (MCF7): > 100 µM
melting point: 279 to 280 °C
IC50 (U-87 MG): > 100 µM
IC50 (A549): > 100 µM
anti-inflammatory effect (in words) [2]: most potent effects
inhibition in vivo at 20 mg/kg [2]: 34%
Histamine-Induced Inflammation IEI, % [2]: 22.7 ± 2.3 %
IC50 (hTERT): > 100 µM

O=C1c2ccccc2-c2nc(-c3ccccc3)cc3cccc1c23 [3a, 2-phenyl-7H-dibenzo[de,h]quinolin-7-one]
activity higher than that of indomethacin (reference drug) [1]: 1.3–1.4 times
inhibition in vivo at 20 mg/kg [1]: 53%
Concanavalin A-Induced Inflammation IEI, % [1]: 17.8 ± 1.8 %
cytotoxicity lower than doxorubicin (HeLa; HeLa): 14 times
IC50 (HeLa; Homo sapiens, HeLa): 86.3 ± 12.9 µM
IC50 (MCF7): > 100 µM
melting point: 207 to 208 °C
IC50 (U-87 MG): > 100 µM
IC50 (A549): > 100 µM
anti-inflammatory effect (in words) [2]: most potent effect
inhibition in vivo at 20 mg/kg [2]: 60%
Histamine-Induced Inflammation IEI, % [2]: 13.9 ± 0.8 %
cytotoxic effect on immortal fibroblasts (in words) (hTERT): did not have a cytotoxic effect
IC50 (hTERT): > 100 µM

CC(=O)c1ccc(-c2cc3cccc4c3c(n2)-c2ccccc2C4=O)cc1 [3b, 2-(p-acetylphenyl)-7H-dibenzo[de,h]quinolin-7one]
anti-inflammatory effect (in words) [1]: most potent effects
inhibition in vivo at 20 mg/kg [1]: 52%
Concanavalin A-Induced Inflammation IEI, % [1]: 18.0 ± 2.0 %
IC50 (HeLa; Homo sapiens, HeLa): > 100 µM
IC50 (MCF7): > 100 µM
melting point: 324 to 325 °C
IC50 (U-87 MG): > 100 µM
IC50 (A549): > 100 µM
anti-inflammatory effect (in words) [2]: most potent effects
inhibition in vivo at 20 mg/kg [2]: 36%
Histamine-Induced Inflammation IEI, % [2]: 22.1 ± 1.8 %
IC50 (hTERT): > 100 µM

O=C1c2ccccc2-c2nc(-c3ccc([N+](=O)[O-])cc3)cc3cccc1c23 [3c, 2-(p-nitrophenyl)-7H-dibenzo[de,h]quinolin-7-one]
melting point: 295 to 296 °C

COc1ccc(-c2cc3cccc4c3c(n2)-c2ccccc2C4=O)cc1 [3d, 2-(p-methoxyphenyl)-7H-dibenzo[de,h]quinolin-7-one]
activity higher than that of indomethacin (reference drug) [1]: 1.5 times and 1.3–1.4 times
inhibition in vivo at 20 mg/kg [1]: 60%
Concanavalin A-Induced Inflammation IEI, % [1]: 15.2 ± 1.6 %
IC50 (HeLa; Homo sapiens, HeLa): > 100 µM
IC50 (MCF7): > 100 µM
melting point: 203 to 204 °C
IC50 (U-87 MG): > 100 µM
IC50 (A549): > 100 µM
inhibition in vivo at 20 mg/kg [2]: 42%
Histamine-Induced Inflammation IEI, % [2]: 19.9 ± 2.6 %
IC50 (hTERT): > 100 µM

CCCCCc1cc2cccc3c2c(n1)-c1ccccc1C3=O [3h]
activity higher than that of indomethacin (reference drug) [1]: 1.3–1.4 times
inhibition in vivo at 20 mg/kg [1]: 48%
Concanavalin A-Induced Inflammation IEI, % [1]: 19.7 ± 2.3 %
IC50 (HeLa; Homo sapiens, HeLa): > 100 µM
IC50 (MCF7): > 100 µM
IC50 (U-87 MG): > 100 µM
IC50 (A549): > 100 µM
inhibition in vivo at 20 mg/kg [2]: 30%
Histamine-Induced Inflammation IEI, % [2]: 23.9 ± 1.7 %
IC50 (hTERT): > 100 µM

CN(C)c1ccc(-c2cc3cccc4c3c(n2)-c2ccccc2C4=O)cc1 [3i]
activity higher than that of indomethacin (reference drug) [1]: 1.3–1.4 times
anti-inflammatory effect (in words) [1]: most potent effects
inhibition in vivo at 20 mg/kg [1]: 51%
Concanavalin A-Induced Inflammation IEI, % [1]: 18.5 ± 1.6 %
IC50 (HeLa; Homo sapiens, HeLa): > 100 µM
IC50 (MCF7): > 100 µM
IC50 (U-87 MG): > 100 µM
IC50 (A549): > 100 µM
anti-inflammatory effect (in words) [2]: most potent effects
inhibition in vivo at 20 mg/kg [2]: 34%
Histamine-Induced Inflammation IEI, % [2]: 22.6 ± 2.3 %
IC50 (hTERT): > 100 µM

CC(C)(O)c1cc2cccc3c2c(n1)-c1ccccc1C3=O [3j]
inhibition in vivo at 20 mg/kg [1]: 41%
Concanavalin A-Induced Inflammation IEI, % [1]: 22.1 ± 2.5 %
cytotoxicity lower than doxorubicin (HeLa; HeLa): 3.5 times
IC50 (HeLa; Homo sapiens, HeLa): 21.3 ± 5.9 µM
antitumor effect on breast cancer cell culture (in words) (MCF7): weak antitumor effect
IC50 (MCF7): 92.9 ± 7.2 µM
antitumor effect on multiform glioblastoma cell culture (in words) (U-87 MG): weak antitumor effect
IC50 (U-87 MG): 50.1 ± 5.9 µM
IC50 (A549): > 100 µM
inhibition in vivo at 20 mg/kg [2]: 16%
Histamine-Induced Inflammation IEI, % [2]: 28.9 ± 2.0 %
cytotoxic effect on immortal fibroblasts (in words) (hTERT): did not have a cytotoxic effect
IC50 (hTERT): > 100 µM

Cc1c(-c2cc3cccc4c3c(n2)-c2ccccc2C4=O)cnn1C [3k]
inhibition in vivo at 20 mg/kg [1]: 18%
Concanavalin A-Induced Inflammation IEI, % [1]: 31.1 ± 2.4 %
cytotoxicity lower than doxorubicin (HeLa; HeLa): 3.5 times
IC50 (HeLa; Homo sapiens, HeLa): 21.3 µM
IC50 (HeLa): 22.7 ± 7.3 µM
IC50 (MCF7): > 100 µM
IC50 (U-87 MG): > 100 µM
IC50 (A549): > 100 µM
inhibition in vivo at 20 mg/kg [2]: 34%
Histamine-Induced Inflammation IEI, % [2]: 22.7 ± 1.7 %
cytotoxic effect on immortal fibroblasts (in words) (hTERT): did not have a cytotoxic effect
IC50 (hTERT): > 100 µM

COc1ccc(C(=O)c2c(C)nc3c4c(cccc24)C(=O)c2ccccc2-3)cc1 [4d, 2-methyl-3-(p-methoxybenzoyl)-7H-dibenzo[de,h]quinolin-7-one]
melting point: 232.5 to 233.5 °C

COc1cccc2c1C(=O)c1c(O)c3c(c(O)c1C2=O)C[C@@](O)(C(=O)CO)C[C@@H]3O[C@H]1C[C@H](N)[C@H](O)[C@H](C)O1 [Doxorubicin, doxorubicin, reference compound]
IC50 (HeLa; Homo sapiens, HeLa): 6 ± 1 µM
IC50 (MCF7): 3.6 ± 0.4 µM
IC50 (U-87 MG): 2.3 ± 0.6 µM
IC50 (A549): 4.05 ± 0.9 µM
IC50 (hTERT): 4.1 ± 1 µM

COc1ccc2c(c1)c(CC(=O)O)c(C)n2C(=O)c1ccc(Cl)cc1 [Indomethacin, indomethacin, reference compound]
inhibition in vivo at 20 mg/kg [1]: 38%
Concanavalin A-Induced Inflammation IEI, % [1]: 23.4 ± 2.2 %
inhibition in vivo at 20 mg/kg [2]: 48%
Histamine-Induced Inflammation IEI, % [2]: 17.8 ± 2.7 %
